These results are taken from US20070207331A1, “Azo compounds and coating compositions containing the azo compounds” (priority 2006, published 2007).

The data set can be described thus: solubility of the reactive azo compounds in toluene (weight percent solubility). In kind it is physicochemical. Conditions: for WPS (weight percent solubility in toluene): heated to boil, cooled to room temperature, filtered (0.45 μm), dry residue mass / filtrate mass; for solubility in toluene relative to compounds of similar structure (in words): comparison of methyl ester comparative compounds with the yellow azo compounds of the invention. As for the experimental part:
The solubilites of the reactive azo compounds of Examples 1, 2, 3 and 4 and Comparative Examples 1, 2 and 3 (C-1, C-2 and C-3) in toluene were determined according to the following procedures: A sample (0.2 g) of each compound was added to a screw top vial followed by the addition of toluene (0.5 mL for each vial containing the reactive azo compound of Examples 1, 3, 4 or C-3; 1.0 mL for Examples 2 or C-1; 1.5 mL for Example C-2. Each vial was capped and heated until the solution or mixture began to boil. Each solution or mixture then was allowed to cool to room temperature. Various amounts of toluene were required to give a filterable solution or suspension upon cooling. The solutions or suspensions of the azo compounds were filtered (0.45 μm nylon membrane with glass microfiber prefilter, Autovial®, Whatman Inc.) to give homogenous solutions (filtrates). Each filtered solution was weighed and the toluene solvent was removed under reduced pressure to give the mass of dry residue of each azo compound dissolved in the toluene solvent. The weight percent solubility of each azo compound is defined as [formula]
wherein WPS is the weight percent solubility for each azo compound in toluene and Dry Azo Compound Residue and Toluene Solution Filtrate are produced as described above. The results of the toluene solubility evaluations are shown in Table II wherein Azo compound refers to the example in which the reactive azo compound and its preparation is described.

As for `C=C(C)c1cccc(C(C)(C)NC(=O)OCCn2c(O)c(/N=N/c3ccccc3C(=O)OCC(CC)CCCC)c(C)c(C#N)c2=O)c1` (stereo not shown) [Example 1], the “WPS (weight percent solubility in toluene)” value came out at 37.5 weight percent.
Still for that read-out and setting: the same measure for `C=C(C)C(=O)OCCn1c(O)c(/N=N/c2ccccc2C(=O)OCC(C)C)c(C)c(C#N)c1=O` [Example 2]: 18.6 weight percent; for `C=C(C)C(=O)OCCn1c(O)c(/N=N/c2ccccc2C(=O)OCC(CC)CCCC)c(C)c(C#N)c1=O` (stereo not shown) [Example 3]: 33.3 weight percent; for `C=C(C)C(=O)OCCn1c(O)c(/N=N/c2ccccc2C(=O)OCCOCC)c(C)c(C#N)c1=O` [Example 4]: 35.5 weight percent.
For the compound `C=C(C)c1cccc(C(C)(C)NC(=O)OCCn2c(O)c(/N=N/c3ccc(C(=O)OC)cc3)c(C)c(C#N)c2=O)c1` [Example C-1], the “solubility in toluene relative to compounds of similar structure (in words)” value is “much lower” and the “WPS (weight percent solubility in toluene)” value amounted to 8.8 weight percent.
The like results for `C=C(C)c1cccc(C(C)(C)NC(=O)OCCn2c(O)c(/N=N/c3ccccc3C(=O)OC)c(C)c(C#N)c2=O)c1` [Example C-2] were, in that order, “much lower” and 2.3 weight percent.
The like results for `C=C(C)C(=O)OCCn1c(O)c(/N=N/c2ccccc2C(=O)OC)c(C)c(C#N)c1=O` [Example C-3] were, in that order, “much lower” and 11.1 weight percent.
